Our source for the IC50 values is patent US4620005A, “1-isopropyl-4[(4-tetrahydro-1-naphthoyloxy phenyl)(alkylene)-carbonyl(oxymethlcarbonyl)]piperazines having chymotrypsin-inhibitory activity” (Kowa Co., Ltd., priority 1983, dated 1986).

Where a name gives a salt, the structure may show the parent alone.

The experiment has as its target chymotrypsin (Bos taurus, UniProt P00766). The experiment in a line: chymotrypsin inhibitory effect (procedure of Muramatsu et al; acetyl-L-tyrosine ethyl ester substrate, Hestrin colour development). The experiment is classed as biochemical. Particulars: 10 min preincubation; 25 mM acetyl-L-tyrosine ethyl ester; 0.1M Tris-HCl pH 8.0; 37° C., 30 min; absorbance 530 nm; read-out: Inhibitory Activity [50% Inhibitory Concentration (M)]. As to the method: Some selected compounds of this invention were tested with respect to their chymotrypsin inhibitory effects.
The tests were conducted in accordance with the procedure of Muramatsu et al [The Journal of Biochemistry, 62, 408 (1967)]. A mixture was prepared which was made up of 0.1 ml of a dimethylsulfoxide solution of each test compound, 0.1 ml of water and 0.1 ml of a buffer solution containing 10 μg/ml of chymotrypsin (0.1M Tris-HCl buffer, pH 8.0). The mixture was incubated for 10 minutes, followed by addition of 0.2 ml of a buffer solution containing 25 mM of an ethyl ester of acetyl-L-tyrosine. The resulting mixture was reacted at 37° C. for 30 minutes. The remaining substrate was caused to develop a color by the Hesterin method, whereupon its absorbance was measured at 530 nm. As a comparative compound, use was made of tosylphenylalanine chloromethyl ketone (TPCK) which is known as an inhibitor for chymotrypsin.
The results are shown in Table 1 in which the numbers of the test compounds are indicated as those of the corresponding examples given hereunder.
As for `CN1CCN(C(=O)C=Cc2ccc(OC(=O)C3CCCc4ccccc43)cc2)CC1` (centres unmarked) [Example 4], the IC50 is 6e-07 M.

With `CC(C)N1CCN(CC(=O)Nc2ccc(OC(=O)C3CCCc4ccccc43)cc2)CC1` (centres unmarked) [Example 1, 1-Isopropyl-4-[{4-(1,2,3,4-tetrahydro-1-naphthoyloxy)-phenyl}carbamoylmethyl]piperazine.dihydrochloride], the IC50 came to 4e-06 M.

`CC(C)N1CCN(C(=O)C=Cc2ccc(OC(=O)C3CCCc4ccccc43)cc2)CC1` (centres unmarked) [Example 2]: the IC50 is 3e-06 M.

In the case of `CC(C)N1CCN(CCNC(=O)c2ccc(OC(=O)C3CCCc4ccccc43)cc2)CC1` (centres unmarked) [Example 3], the IC50 came to 7e-07 M.

Consider `CC(C)N1CCN(C(=O)COC(=O)c2ccc(OC(=O)C3CCCc4ccccc43)cc2)CC1` (centres unmarked) [Example 5], for which the IC50 came to 3e-08 M.
